Literature values, collected in US11931418B2, “Methods of treating severe inflammation” (Ashvattha Therapeutics, Inc., priority 2020, dated 2024).

Tested on: SARS-CoV-2 patients
Settings: COVID-19 patients

Substance: lopinavir-ritonavir
- clinical benefit: no benefit observed
